Data from the supplement of paper PMC4862054.

Tests used:
Assay in all cases: normalised response (% of control), CellTiter-Glo; higher = more viable cells (100 = DMSO, 0 = benzethonium chloride kill control)
Conditions in all cases: incubation time: 72 h
[1] = test system: BT-474
Method in brief: (§1)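 Breast cancer cell lines, seeded at 20 µl suspension per well, were incubated for 72 h in 384-well plates containing compound at 5 concentrations. These concentrations rose in 10-fold steps over a 10,000-fold range set for each compound. CellTox Green fluorescence (485/520 nm) was read, then CellTiter-Glo luminescence after 10 min at room temperature, and each plate was normalised to 0.1 % DMSO (100) and a positive kill control (0). Values are normalised signals, each at one concentration.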

[2] = test system: BT-549
Method in brief: as §1

[3] = test system: CAL-120
Method in brief: as §1

[4] = test system: CAL-148
Method in brief: as §1

[5] = test system: CAL-51
Method in brief: as §1

[6] = test system: CAL-85-1
Method in brief: as §1

[7] = test system: DU-4475
Method in brief: as §1

[8] = test system: HCC1143
Method in brief: as §1

[9] = test system: HCC1599
Method in brief: as §1

[10] = test system: HCC1937
Method in brief: as §1

[11] = test system: HDQ-P1
Method in brief: as §1

[12] = test system: Hs578T
Method in brief: as §1

[13] = test system: MCF-10A
Method in brief: as §1

[14] = test system: MDA-MB-231
Method in brief: as §1

[15] = test system: MDA-MB-436
Method in brief: as §1

[16] = test system: MDA-MB-453
Method in brief: as §1

[17] = test system: MDA-MB-468
Method in brief: as §1

[18] = test system: MFM-223
Method in brief: as §1

[19] = test system: SK-BR-3
Method in brief: as §1

Compound | normalised response [1] | normalised response [2] | normalised response [3] | normalised response [4] | normalised response [5] | normalised response [6] | normalised response [7] | normalised response [8] | normalised response [9] | normalised response [10] | normalised response [11] | normalised response [12] | normalised response [13] | normalised response [14] | normalised response [15] | normalised response [16] | normalised response [17] | normalised response [18] | normalised response [19]
CCN(CC)CCCC(C)Nc1ccnc2cc(Cl)ccc12 (stereo not given) [Chloroquine] (100 nM) | 99.9% | 103% | 98.8% | 88.6% | 71.1% | 94.5% | 92.9% | 103% | 46% | 103% | 102% | 102% | 93.7% | 96.7% | 103% | 91.5% | 91.7% | 100% | 88.3%
CC1(COc2ccc3c(c2)ncn3-c2ccc3cccc(N4CCC(N)CC4)c3n2)COC1 [Crenolanib] (1 nM) | 102% | 110% | 98.5% | 102% | 123% | 96.6% | 108% | 98.5% | 105% | 103% | 102% | 103% | 116% | 98.7% | 97.9% | 90.9% | 102% | 99.5% | 106%
CC(C)(C)c1nc(-c2cccc(NS(=O)(=O)c3c(F)cccc3F)c2F)c(-c2ccnc(N)n2)s1 [Dabrafenib] (0.25 nM) | 98.9% | 109% | 98.9% | 116% | 109% | 103% | 101% | 108% | 98.8% | 106% | 104% | 101% | 109% | 104% | 101% | 104% | 99.7% | 104% | 108%
Cn1cc(C2=C(c3cn(C4CCN(Cc5ccccn5)CC4)c4ccccc34)C(=O)NC2=O)c2ccccc21 [Enzastaurin] (10 nM) | 99.6% | 92.4% | 92.7% | 96.2% | 92.2% | 107% | 103% | 103% | 96.3% | 95.5% | 99.4% | 100% | 106% | 104% | 107% | 107% | 96.5% | 104% | 104%
Cc1nc(C(=O)NCC(=O)O)c(O)c2ccc(Oc3ccccc3)cc12 [FG-4592] (1 nM) | 94.7% | 104% | 98.5% | 102% | 89.8% | 98.9% | 103% | 108% | 100% | 102% | 106% | 103% | 111% | 101% | 96.2% | 109% | 98.4% | 102% | 111%
Cc1nc(C(=O)NCC(=O)O)c(O)c2ccc(Oc3ccccc3)cc12 [FG-4592] (10 nM) | 104% | 99.1% | 100% | 117% | 90.5% | 101% | 101% | 105% | 104% | 105% | 103% | 103% | 111% | 101% | 95% | 109% | 97.3% | 107% | 109%
CC(C)(C)NC(=O)[C@H]1CC[C@H]2[C@@H]3CC[C@H]4NC(=O)C=C[C@]4(C)[C@H]3CC[C@]12C [Finasteride] (10 nM) | 98.3% | 96.4% | 99.5% | 101% | 80.6% | 98.7% | 102% | 108% | 114% | 103% | 97.3% | 101% | 104% | 104% | 95.9% | 113% | 106% | 97.8% | 121%
CC(C)C[C@H](NC(=O)[C@@H](COC(C)(C)C)NC(=O)[C@H](Cc1ccc(O)cc1)NC(=O)[C@H](CO)NC(=O)[C@H](Cc1c[nH]c2ccccc12)NC(=O)[C@H](Cc1cnc[nH]1)NC(=O)[C@@H]1CCC(=O)N1)C(=O)N[C@@H](CCCNC(=N)N)C(=O)N1CCC[C@H]1C(=O)NNC(N)=O [Goserelin] (10 nM) | 98% | 99.4% | 101% | 94.6% | 92.5% | 93.8% | 100% | 99.2% | 98.5% | 93.7% | 101% | 99.5% | 102% | 94% | 98% | 102% | 96.1% | 94.2% | 119%
O=C(O)CNC(=O)c1c(O)c2ccccc2n(Cc2ccccc2)c1=O [IOX-2] (5 nM) | 99.3% | 95.9% | 93.9% | 94.5% | 99.5% | 95.9% | 97.3% | 94.8% | 103% | 95% | 100% | 95% | 106% | 94.5% | 95.4% | 104% | 93.6% | 92.5% | 95.3%
C=CCn1c(=O)c2cnc(Nc3ccc(N4CCN(C)CC4)cc3)nc2n1-c1cccc(C(C)(C)O)n1 [MK1775] (10 nM) | 87.5% | 98.9% | 93.1% | 79.3% | 121% | 93.2% | 93.2% | 92.4% | 107% | 94.5% | 94.4% | 101% | 83% | 90.5% | 88.6% | 81% | 90.4% | 88.8% | 76.1%
CN(C)C(=N)NC(=N)N [Metformin] (10 nM) | 92.3% | 98.3% | 103% | 97.7% | 86.8% | 99.6% | 87.8% | 98% | 93.1% | 90.6% | 97.7% | 93.2% | 77% | 96.5% | 91.7% | 80.5% | 89.4% | 88.1% | 76.9%
CN(Cc1cnc2nc(N)nc(N)c2n1)c1ccc(C(=O)N[C@@H](CCC(=O)O)C(=O)O)cc1 [Methotrexate] (5 nM) | 100% | 117% | 99.5% | 105% | 103% | 101% | 105% | 107% | 88.1% | 107% | 102% | 109% | 107% | 109% | 97.6% | 116% | 108% | 108% | 118%
CN(Cc1cnc2nc(N)nc(N)c2n1)c1ccc(C(=O)N[C@@H](CCC(=O)O)C(=O)O)cc1 [Methotrexate] (50 nM) | 101% | 100% | 32.5% | 109% | 63.7% | 76.7% | 88.4% | 84.5% | 51.9% | 33% | 35.5% | 47.6% | 111% | 100% | 86.1% | 114% | 92.8% | 108% | 74.7%
CO[C@@H]1[C@H](N(C)C(=O)c2ccccc2)C[C@H]2O[C@]1(C)n1c3ccccc3c3c4c(c5c6ccccc6n2c5c31)C(=O)NC4 [Midostaurin] (10 nM) | 98.6% | 107% | 96% | 105% | 97.2% | 100% | 97.5% | 98.9% | 123% | 95.3% | 97.5% | 99.4% | 96.3% | 102% | 104% | 96.7% | 106% | 96.7% | 96.1%
CO[C@@]12[C@H](COC(N)=O)C3=C(C(=O)C(C)=C(N)C3=O)N1C[C@@H]1N[C@@H]12 [Mitomycin C] (10 nM) | 92.7% | 98.3% | 96.9% | 86.7% | 105% | 96.5% | 98.9% | 96.3% | 82.3% | 101% | 96.7% | 98.7% | 96.3% | 97% | 91% | 89% | 92.8% | 97.2% | 94.4%
CCNC(=O)c1noc(-c2cc(C(C)C)c(O)cc2O)c1-c1ccc(CN2CCOCC2)cc1 [NVP-AUY922] (1 nM) | 114% | 97.2% | 106% | 104% | 106% | 105% | 105% | 104% | 108% | 102% | 104% | 101% | 106% | 103% | 104% | 113% | 107% | 104% | 106%
CC1(C)CCC(c2ccc(Cl)cc2)=C(CN2CCN(c3ccc(C(=O)NS(=O)(=O)c4ccc(N[C@H](CCN5CCOCC5)CSc5ccccc5)c(S(=O)(=O)C(F)(F)F)c4)cc3)CC2)C1 [Navitoclax] (10 nM) | 94.5% | 99.5% | 91.7% | 90% | 115% | 97% | 99.4% | 95.9% | 103% | 101% | 87.5% | 99.7% | 98.6% | 98.1% | 98% | 100% | 87.6% | 96.7% | 77.3%
Cc1cn(-c2cc(NC(=O)c3ccc(C)c(Nc4nccc(-c5cccnc5)n4)c3)cc(C(F)(F)F)c2)cn1 [Nilotinib] (10 nM) | 100% | 103% | 88.6% | 92.7% | 85.8% | 100% | 106% | 96.5% | 104% | 96.5% | 93.5% | 94% | 104% | 91.2% | 94.1% | 103% | 98.8% | 97.3% | 105%
CC[C@H](CO)Nc1nc(NCc2ccccc2)c2ncn(C(C)C)c2n1 [Seliciclib] (1 nM) | 100% | 97.2% | 96.7% | 106% | 88.7% | 100% | 106% | 101% | 92.9% | 97.3% | 102% | 100% | 97.1% | 107% | 104% | 104% | 98% | 104% | 107%
C=CCN(/C=C1/C(=O)O[C@H](COC)[C@@]2(C)C1=C(O)C(=O)C1=C2[C@H](OC(C)=O)C[C@]2(C)C(=O)CC[C@@H]12)CC=C [Sonolisib] (1 nM) | 107% | 103% | 107% | 110% | 75.2% | 103% | 103% | 102% | 116% | 101% | 95.6% | 105% | 108% | 109% | 102% | 119% | 104% | 107% | 109%
